Experimental data taken from patent US11629166B2, “Compound for treating clostridium difficile” (priority 2014, dated 2023).

Columns and labels:
Type in all cases: cell-based, Clostridium Difficile
[1] = system: C. Difficile NCTC 11204 and ribotype 027 (R20291) spores; assay: Germination tests, heat shock method (heat vs ice); settings: 2% (w/v) germination solution, 1 hour, strains 11204 and 027; for >1 log reduction on heat: then 70° C. for 20 minutes, reduction suggests germinant; for >1 log reduction on ice: control samples kept on ice, reduction suggests sporicide or germinant/antimicrobial
Protocol: Many of the synthesised compounds were tested for their germinating and antimicrobial abilities against C. Difficile. Due to the insolubility of some of the compounds in water, DMSO, ethanol and methanol were used to dissolve the compounds.
The C. Difficile reference strain, NCTC 11204 and C. Difficile ribotype 027 (R20291) (Anaerobic Reference Laboratory, Cardiff, UK) were used during testing.
Spore suspensions of C. Difficile were prepared following the method proposed by Shetty et al. (1999). Briefly, Columbia base agar plates were inoculated with the relevant strain of C. Difficile and incubated for 72 hours anaerobically at 37° C. (MiniMACS anaerobic cabinet, Don Whitley Scientific, Shipley, UK). Then, the plates were removed and left or 24 hours in aerobic conditions at room temperature. Colonies were then harvested into 20 mL of 50% (w/v) ethanol and 50% saline, and vortex thoroughly. These were stored at 4° C. until needed.
All experiments were performed in triplicate using spore suspensions containing 1×10^7 CFU mL^−1 spores of C. difficile NCTC 11204 and ribotype 027.
Before use, 1 mL of spores were centrifuged at 13000 rpm for 10 minutes (Spectrafuge 24D; Labnet, Woodbridge, USA). The supernatant was discarded, and the pellet resuspended in 1 mL sterile distilled water and vortex mixed thoroughly.
Germination solutions were prepared using 2% (w/v) of the compound in diluent (DMSO, ethanol, methanol, water) plus double strength thioglycollate medium (Oxoid, UK).
For the heat shock method, 100 μl spores were exposed to 100 μl of the germination solution and incubated at room temperature in air for 1 hour. The entire 200 μl sample was then added to 800 μl sterile distilled water to dilute out the germinant to ineffective concentrations. Samples were placed on heat at 70° C. for 20 minutes to eliminate any germinated, metabolically active spores. Control samples were kept on ice. Solutions were then diluted accordingly using sterile distilled water, and cultured onto fastidious anaerobic agar (Lab M, Bury, UK), supplemented with 0.1% (w/v) sodium taurocholate (ST) and 5% (w/v) defibrinated horse blood using the Miles and Misra method (Miles et al., 1938). These were then incubated anaerobically for 48 hours at 37° C. (MiniMACS anaerobic cabinet, Don Whitley Scientific, Shipley, UK) and the CFU mL^−1 counted.
The results from the table above show the compounds that gave a 1 log reduction or more between the initial spore count and the spore count after the heat and ice treatment. […] Due to the nature of this test, it is difficult to distinguish between the two.

C. Difficile spores [2] = assay: Germination activity of compound 129 reactively processed with HDPE after subsequent exposure to ethanol; settings: for % Reduction 2 hours / Log Reduction 2 hours / % Reduction 24 hours / Log Reduction 24 hours / % Reduction 96 hours / Log Reduction 96 hours: HDPE polymer film, after ethanol exposure
Protocol: HDPE (high density polyethylene) samples containing the modified bile salt compound 129, reactively processed under different compression moulding conditions, were tested to determine the germination activity. […] Difficile spores. This confirms the germination activity of compound 129 when incorporated into HDPE by reactive processing.

C. Difficile spores [3] = assay: Germination and antimicrobial efficiency (dual activity) of compound 129 in HDPE; settings: for % Reduction 2 hours / Log Reduction 2 hours / % Reduction 24 hours / Log Reduction 24 hours / % Reduction 96 hours / Log Reduction 96 hours: HDPE polymer
Source text: Reactively processed HDPE polymer containing compound 129 is shown to have the ability to both germinate the spores of C. […] This exemplifies, therefore, the dual action of compound 129 and its efficacy both as a germinant and an antimicrobial.

C[C@H](CCC(=O)NCCC[N+](C)(C)c1ccc(C(=O)c2ccccc2)cc1)[C@H]1CC[C@H]2[C@@H]3[C@H](O)C[C@@H]4C[C@H](O)CC[C@]4(C)[C@H]3C[C@H](O)[C@]12C.[Br-] [2/148]
>1 log reduction on heat [1]: Yes (027)

C[C@H](CCC(=O)NCC[N+]1(c2ccc(C(=O)c3ccccc3)cc2)CCCC1)[C@H]1CC[C@H]2[C@@H]3[C@H](O)C[C@@H]4C[C@H](O)CC[C@]4(C)[C@H]3C[C@H](O)[C@]12C.[Br-] [2/150]
>1 log reduction on ice [1]: Yes (11204)

C[C@H](CCC(=O)NCc1ccccc1)[C@H]1CC[C@H]2[C@@H]3[C@H](O)C[C@@H]4C[C@H](O)CC[C@]4(C)[C@H]3C[C@H](O)[C@]12C [Compound 2, cholic acid benzyl amide]
>1 log reduction on ice [1]: Yes (11204)

CCCCN(CCCC)CCCNC(=O)CC[C@@H](C)[C@H]1CC[C@H]2[C@@H]3[C@H](O)C[C@@H]4C[C@H](O)CC[C@]4(C)[C@H]3C[C@H](O)[C@]12C [Compound 7]
>1 log reduction on ice [1]: Yes (11204)
>1 log reduction on heat [1]: Yes (11204)

C[C@H](CCC(=O)NCCN1CCCC1)[C@H]1CC[C@H]2[C@@H]3[C@H](O)C[C@@H]4C[C@H](O)CC[C@]4(C)[C@H]3C[C@H](O)[C@]12C [Compound 10]
>1 log reduction on heat [1]: Yes (11204)

CCCCCCCCCCCCCCCCCCNC(=O)CC[C@@H](C)[C@H]1CC[C@H]2[C@@H]3[C@H](O)C[C@@H]4C[C@H](O)CC[C@]4(C)[C@H]3C[C@H](O)[C@]12C [Compound 16]
>1 log reduction on heat [1]: Yes (11204 and 027)

CCCCCC[N+](C)(C)CCCNC(=O)CC[C@@H](C)[C@H]1CCC2C3C(C[C@H](O)[C@@]21C)[C@@]1(C)CC[C@@H](O)CC1C[C@H]3O (stereo partly shown) [Compound 29]
>1 log reduction on heat [1]: yes

C=CC[N+](C)(C)CCCNC(=O)CC[C@@H](C)[C@H]1CCC2C3C(C[C@H](O)[C@@]21C)[C@@]1(C)CC[C@@H](O)CC1C[C@H]3O.[Br-] (stereo partly shown) [Compound 34, 3-cholanamidopropyl-allyl-dimethyl-ammonium;bromide]
>1 log reduction on heat [1]: yes

CCC[N+]1(CCNC(=O)CC[C@@H](C)[C@H]2CC[C@H]3[C@@H]4[C@H](O)C[C@@H]5C[C@H](O)CC[C@]5(C)[C@H]4C[C@H](O)[C@]23C)CCCC1.[I-] [Compound 45]
>1 log reduction on ice [1]: yes
>1 log reduction on heat [1]: yes

C[C@H](CCC(=O)NCC[N+]1(Cc2ccccc2)CCCC1)[C@H]1CC[C@H]2[C@@H]3[C@H](O)C[C@@H]4C[C@H](O)CC[C@]4(C)[C@H]3C[C@H](O)[C@]12C [Compound 50]
>1 log reduction on ice [1]: yes
>1 log reduction on heat [1]: yes

C=Cc1ccc(C[N+](C)(C)CCNC(=O)CC[C@@H](C)[C@H]2CCC3C4CCC5C[C@H](O)CC[C@]5(C)C4CC[C@@]32C)cc1.[Cl-] (stereo partly drawn) [Compound 129, 2-[[(4R)-4-[(3R,10S,13R,17R)-3-hydroxy-10,13-dimethyl-2,3,4,5,6,7,8,9,11,-12,14,15,16,17-tetradecahydro-1H-cyclopenta[a]phenanthren-17-yl]pentanoyl]-amino]ethyl-dimethyl-[(4-vinylphenyl)methyl]ammonium chloride]
germination activity, lower vs higher processing temperature (C. Difficile spores [2]; 3% films, samples processed at the lower temperature (165° C. vs 170° C.), after 24 and 46 hours): slightly higher level of germination activity
% Reduction 2 hours (C. Difficile spores [2]; 3% T101 160° C.): 79.8%
Log Reduction 2 hours (C. Difficile spores [2]; 3% T101 160° C.): 0.752 Log
% Reduction 24 hours (C. Difficile spores [2]; 3% T101 160° C.): 67.6%
Log Reduction 24 hours (C. Difficile spores [2]; 3% T101 160° C.): 0.546 Log
% Reduction 96 hours (C. Difficile spores [2]; 3% T101 160° C.): 69.8%
Log Reduction 96 hours (C. Difficile spores [2]; 3% T101 160° C.): 0.577 Log
% Reduction 2 hours (C. Difficile spores [2]; 3% T101 165° C.): 99.2%
Log Reduction 2 hours (C. Difficile spores [2]; 3% T101 165° C.): 2.165 Log
% Reduction 24 hours (C. Difficile spores [2]; 3% T101 165° C.): 97.1%
Log Reduction 24 hours (C. Difficile spores [2]; 3% T101 165° C.): 1.598 Log
% Reduction 96 hours (C. Difficile spores [2]; 3% T101 165° C.): 92.0%
Log Reduction 96 hours (C. Difficile spores [2]; 3% T101 165° C.): 1.154 Log
% Reduction 2 hours (C. Difficile spores [2]; 3% T101 170° C.): 99.2%
Log Reduction 2 hours (C. Difficile spores [2]; 3% T101 170° C.): 2.165 Log
% Reduction 24 hours (C. Difficile spores [2]; 3% T101 170° C.): 87.8%
Log Reduction 24 hours (C. Difficile spores [2]; 3% T101 170° C.): 0.971 Log
% Reduction 96 hours (C. Difficile spores [2]; 3% T101 170° C.): 82.0%
Log Reduction 96 hours (C. Difficile spores [2]; 3% T101 170° C.): 0.802 Log
germination activity (C. Difficile spores [2]; HDPE samples with a higher amount of compound 129 (6%)): did not perform well
Log reduction compared to the HDPE/peroxide T101 control (C. Difficile spores [2]; polymer film containing 3% of compound 129, prepared both at 165° C. and 170° C., at 2 hours): 2.2 Log
reduction in C. Difficile spores (C. Difficile spores [2]; prepared at 165° C./170° C., following subsequent exposure to ethanol): 99.2%
% Reduction 2 hours (C. Difficile spores [3]; 3% T101 165° C.): 96.9%
Log Reduction 2 hours (C. Difficile spores [3]; 3% T101 165° C.): 1.563 Log
% Reduction 24 hours (C. Difficile spores [3]; 3% T101 165° C.): 86.9%
Log Reduction 24 hours (C. Difficile spores [3]; 3% T101 165° C.): 0.940 Log
% Reduction 96 hours (C. Difficile spores [3]; 3% T101 165° C.): 78.0%
Log Reduction 96 hours (C. Difficile spores [3]; 3% T101 165° C.): 0.714 Log
% Reduction 2 hours (C. Difficile spores [3]; 3% T101 170° C.): 79.6%
Log Reduction 2 hours (C. Difficile spores [3]; 3% T101 170° C.): 0.747 Log
% Reduction 24 hours (C. Difficile spores [3]; 3% T101 170° C.): 75.4%
Log Reduction 24 hours (C. Difficile spores [3]; 3% T101 170° C.): 0.666 Log
% Reduction 96 hours (C. Difficile spores [3]; 3% T101 170° C.): 88.5%
Log Reduction 96 hours (C. Difficile spores [3]; 3% T101 170° C.): 0.998 Log
% Reduction 2 hours (C. Difficile spores [3]; 6% T101 160° C.): 0.0%
Log Reduction 2 hours (C. Difficile spores [3]; 6% T101 160° C.): 0.057 Log
% Reduction 24 hours (C. Difficile spores [3]; 6% T101 160° C.): 44.8%
Log Reduction 24 hours (C. Difficile spores [3]; 6% T101 160° C.): 0.315 Log
% Reduction 96 hours (C. Difficile spores [3]; 6% T101 160° C.): 86.8%
Log Reduction 96 hours (C. Difficile spores [3]; 6% T101 160° C.): 0.936 Log
spore reduction (C. Difficile spores [3]; reactive processing of the polymer at 170° C.): 79.6%
reduction of the subsequent metabolically active bio-load after spore germination (C. Difficile spores [3]; reactively processed HDPE polymer containing compound 129): 96.9%
